Values quoted from earlier work in publication PMC6347699 (Proceedings of the National Academy of Sciences of the …, 2019).
“Also recorded” adds a separate entry of the source. Ends that are not written are not given here.

How the values were obtained:
[1] = tested on: Gram-negative enterobacteria; details: range of Gram-negative enterobacteria
[2] = harsh denaturing conditions

| Ki (Eco RNAP; read-out: Ki, inhibition of Eco RNAP in in vitro transcription reactions) [nM] | Substance | inhibition of Eco RNAP (Eco RNAP) | inhibition of RNAP backtracking (RNAP backtracking) | antimicrobial properties [1] | mode of inhibition with respect to NTPs (Eco RNAP) | stability of structure and activity [2] |
| --- | --- | --- | --- | --- | --- | --- |
| – | acinetodin [reference compound] | inhibit Eco RNAP | – | – | – | – |
| – | klebsidin [reference compound] | inhibit Eco RNAP | – | – | – | – |
| ~1000 | microcin J25 (GGAGHVPEYFVGIGTPISFYG; ends and bridges not checked; UniProt Q9X2V7 38-58, looked up) [MccJ25] | – | inhibit RNAP backtracking | antimicrobial properties against a range of Gram-negative enterobacteria | partially competitive; also recorded: partial competitive | stable to harsh denaturing conditions |
